Reference: patent publication US11685732B2, “MYST family histone acetyltransferase inhibitors” (Epizyme, Inc., priority 2017, dated 2023)

How the values were obtained:
[1] = target: KAT-5 (Homo sapiens (Human), UniProt Q92993); experiment: KAT-5 biochemical inhibition assay (SAMDI mass spectrometry)
Summary of the method: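 Acetylation of 1 μM peptide by 9 nM enzyme with 0.5 μM acetyl-CoA (final) was run 90 min at 25° C in Tris pH 8.0 buffer with DTT, after compound preincubation at 2% DMSO. Formic acid stopped the reaction, and product was quantified by SAMDI mass spectrometry to derive IC50.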

[2] = target: KAT-6A (Homo sapiens (Human), UniProt Q92794); experiment: KAT-6A biochemical inhibition assay (SAMDI mass spectrometry)
Summary of the method: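 IC50 values came from SAMDI time-of-flight mass spectrometry after formic acid quench (0.5% final). Acetylation ran 90 min at 25 °C with 1 μM acetyl coenzyme A and 1 μM peptide substrate, following compound pre-incubation with 12.5 nM KAT-6A in Tris buffer pH 8.0 containing DTT, 2% DMSO final.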

[3] = target: KAT-7 (Homo sapiens (Human), UniProt O95251); experiment: KAT-7 biochemical inhibition assay (SAMDI mass spectrometry)
Summary of the method: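 Read-out was SAMDI time-of-flight MS of formic acid-quenched reactions (0.5% final). Compound dilutions (2% DMSO final) were pre-incubated with 6 nM KAT-7 in 50 mM Tris pH 8.0 with 1 mM DTT, then given 1 μM peptide substrate and 2 μM acetyl-CoA for 120 min at 25 °C. IC50 values were derived.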

[4] = target: KAT-8 (Homo sapiens (Human), UniProt Q9H7Z6); experiment: KAT-8 biochemical inhibition assay (SAMDI mass spectrometry)
Summary of the method: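 Acetylation of 1 μM peptide substrate with 5 μM acetyl-CoA by 12.5 nM enzyme, compound pre-incubated, 2% DMSO, Tris pH 8.0 buffer with DTT, 25 °C for 90 min. Quench with 0.5% formic acid; product read by SAMDI mass spectrometry to give IC50.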

Sequence of KAT-5 (Q92993 other isoform, or with tags, fused parts or gaps): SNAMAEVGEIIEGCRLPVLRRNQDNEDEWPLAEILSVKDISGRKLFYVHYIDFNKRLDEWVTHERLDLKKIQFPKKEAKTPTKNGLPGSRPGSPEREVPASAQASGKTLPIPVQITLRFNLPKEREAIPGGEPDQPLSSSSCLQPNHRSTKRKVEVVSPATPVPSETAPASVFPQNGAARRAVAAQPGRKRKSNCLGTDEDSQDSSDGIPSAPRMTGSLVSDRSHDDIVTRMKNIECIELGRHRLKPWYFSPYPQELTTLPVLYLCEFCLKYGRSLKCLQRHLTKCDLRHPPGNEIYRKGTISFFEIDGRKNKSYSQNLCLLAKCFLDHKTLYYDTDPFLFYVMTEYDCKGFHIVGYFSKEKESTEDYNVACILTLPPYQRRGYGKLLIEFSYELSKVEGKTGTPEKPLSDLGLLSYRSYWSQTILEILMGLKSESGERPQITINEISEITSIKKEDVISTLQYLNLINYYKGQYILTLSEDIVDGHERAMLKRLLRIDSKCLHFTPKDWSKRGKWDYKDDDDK
Sequence of KAT-6A (Q92794 other isoform, or with tags, fused parts or gaps): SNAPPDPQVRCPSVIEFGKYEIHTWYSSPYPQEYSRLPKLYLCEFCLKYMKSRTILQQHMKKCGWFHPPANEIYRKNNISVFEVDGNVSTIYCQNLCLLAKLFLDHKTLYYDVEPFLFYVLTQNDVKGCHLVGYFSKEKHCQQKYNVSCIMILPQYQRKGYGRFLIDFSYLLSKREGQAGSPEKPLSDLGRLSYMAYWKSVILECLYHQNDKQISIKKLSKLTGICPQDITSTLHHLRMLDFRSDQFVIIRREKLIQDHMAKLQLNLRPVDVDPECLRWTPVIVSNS
Sequence of KAT-7 (O95251 other isoform, or with tags, fused parts or gaps): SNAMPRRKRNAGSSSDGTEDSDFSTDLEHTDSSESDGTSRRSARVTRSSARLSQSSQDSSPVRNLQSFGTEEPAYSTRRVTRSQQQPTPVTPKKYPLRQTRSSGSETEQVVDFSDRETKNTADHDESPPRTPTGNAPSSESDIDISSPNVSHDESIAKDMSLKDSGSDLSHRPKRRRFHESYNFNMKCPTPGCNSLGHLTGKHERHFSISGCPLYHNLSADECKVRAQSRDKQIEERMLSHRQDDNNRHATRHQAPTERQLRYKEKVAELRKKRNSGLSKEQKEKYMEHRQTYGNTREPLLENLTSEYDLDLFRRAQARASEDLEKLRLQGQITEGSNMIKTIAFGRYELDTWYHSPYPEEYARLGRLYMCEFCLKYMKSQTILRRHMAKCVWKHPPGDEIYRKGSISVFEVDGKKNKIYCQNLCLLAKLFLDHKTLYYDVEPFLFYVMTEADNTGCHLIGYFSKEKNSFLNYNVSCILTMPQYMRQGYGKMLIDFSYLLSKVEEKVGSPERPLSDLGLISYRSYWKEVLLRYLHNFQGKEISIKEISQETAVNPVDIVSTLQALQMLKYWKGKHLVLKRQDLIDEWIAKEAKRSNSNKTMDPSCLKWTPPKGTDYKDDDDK
Sequence of KAT-8 (Q9H7Z6 other isoform, or with tags, fused parts or gaps): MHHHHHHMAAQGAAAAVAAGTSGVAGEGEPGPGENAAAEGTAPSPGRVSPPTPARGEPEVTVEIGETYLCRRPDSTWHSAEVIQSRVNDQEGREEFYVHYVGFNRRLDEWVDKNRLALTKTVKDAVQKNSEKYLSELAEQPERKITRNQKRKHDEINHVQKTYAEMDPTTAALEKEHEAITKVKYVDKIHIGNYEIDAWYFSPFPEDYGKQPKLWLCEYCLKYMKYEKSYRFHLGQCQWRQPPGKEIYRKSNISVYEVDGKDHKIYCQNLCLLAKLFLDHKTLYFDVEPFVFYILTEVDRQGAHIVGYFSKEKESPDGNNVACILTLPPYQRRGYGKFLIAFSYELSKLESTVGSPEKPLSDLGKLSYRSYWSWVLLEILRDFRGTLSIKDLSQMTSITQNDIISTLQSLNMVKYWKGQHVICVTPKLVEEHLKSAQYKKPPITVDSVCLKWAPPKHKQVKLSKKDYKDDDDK

IC50 [1] [µM]	IC50 [2] [µM]	IC50 [3] [µM]	IC50 [4] [µM]	Compound
10 to 50	10 to 50	< 10	10 to 50	Cn1cnc(-c2cc(F)c(F)c(C(=O)NNS(=O)(=O)CC3CCOCC3)c2)c1 [Compound I-150]
50 to 100	10 to 50	10 to 50	> 100	Cc1nc(-c2cc(Cl)c(F)c(C(=O)NNS(=O)(=O)C3CCOCC3)c2)cn1C [Compound I-37]
< 10	< 10	< 10	10 to 50	Cn1cnc(-c2cc(Cl)c(F)c(C(=O)NNS(=O)(=O)C[C@@H]3CCN(C(=O)OC(C)(C)C)C3)c2)c1 [Compound I-117]
< 10	< 10	< 10	10 to 50	CC1CCCC(CS(=O)(=O)NNC(=O)c2cc(-c3cn(C)cn3)cc(Cl)c2F)C1 (stereo not drawn) [Compound I-302]
10 to 50	10 to 50	< 10	10 to 50	COCCn1cc(S(=O)(=O)NNC(=O)c2cc(-c3cn(C)cn3)cc(Cl)c2F)cn1 [Compound I-212]
10 to 50	< 10	< 10	10 to 50	Cn1cnc(-c2cc(Cl)c(F)c(C(=O)NNS(=O)(=O)c3cnn(C)n3)c2)c1 [Compound I-72]
< 10	< 10	< 10	10 to 50	CNC(=S)N1CC[C@H](CS(=O)(=O)NNC(=O)c2cc(-c3cn(C)cn3)cc(Cl)c2F)C1 [Compound I-172]
> 100	> 100	10 to 50	> 100	Cn1cnc(-c2cc(Cl)c(F)c(C(=O)NNS(=O)(=O)C3CC3)c2)c1 [Compound I-19]
10 to 50	10 to 50	10 to 50	10 to 50	Cc1ncn(-c2cc(Cl)c(F)c(C(=O)NNS(=O)(=O)C3CCOCC3)c2)n1 [Compound I-77]
< 10	10 to 50	< 10	> 100	Cc1cc(-c2cn(C)cn2)cc(C(=O)NNS(=O)(=O)C2CCCCC2)c1F [Compound I-127]
< 10	< 10	< 10	10 to 50	CCS(=O)(=O)N1CCCC(CS(=O)(=O)NNC(=O)c2cc(-c3cn(C)cn3)cc(Cl)c2F)C1 (stereo not drawn) [Compound I-82]
< 10	< 10	< 10	10 to 50	Cn1cnc(-c2cc(Cl)c(F)c(C(=O)NNS(=O)(=O)CC34CCC(CC3)CC4)c2)c1 [Compound I-334]
10 to 50	10 to 50	< 10	> 100	CCn1cc(S(=O)(=O)NNC(=O)c2cc(-c3cn(C)cn3)cc(Cl)c2F)cn1 [Compound I-52]
> 100	> 100	10 to 50	> 100	CCn1c(-c2cc(Cl)c(F)c(C(=O)NNS(=O)(=O)C3CCCCC3)c2)cnc1C [Compound I-61]
10 to 50	10 to 50	< 10	10 to 50	Cn1cnc(-c2cc(Cl)c(F)c(C(=O)NNS(=O)(=O)C[C@H]3CCN(C(=O)OC(C)(C)C)C3)c2)c1 [Compound I-122]
< 10	< 10	< 10	10 to 50	COCCN(Cc1ccc(OC)cc1)C(=O)N1CCC(CS(=O)(=O)NNC(=O)c2cc(-c3cn(C)cn3)cc(Cl)c2F)C1 (stereo not drawn) [Compound I-189]
< 10	< 10	< 10	> 100	Cn1cnc(-c2cc(Cl)c(F)c(C(=O)NNS(=O)(=O)CC3CCCN(C(=O)C4CCOCC4)C3)c2)c1 (stereo not drawn) [Compound I-32]
10 to 50	< 10	50 to 100	> 100	O=C(NNS(=O)(=O)CC1CCOCC1)c1cc(-n2cccn2)cc(Cl)c1F [Compound I-41]
10 to 50	< 10	< 10	10 to 50	Cn1cnc(-c2cc(Cl)c(F)c(C(=O)NNS(=O)(=O)c3ccc(=O)[nH]c3)c2)c1 [Compound I-381]
< 10	< 10	< 10	10 to 50	CCNC(=O)N(C)[C@H]1CC[C@H](CS(=O)(=O)NNC(=O)c2cc(-c3cn(C)cn3)cc(Cl)c2F)CC1 [Compound I-338]
> 100	10 to 50	< 10	> 100	Cn1cnc(-c2cc(Cl)c(F)c(C(=O)NNS(C)(=O)=O)c2)c1 [Compound I-22]

IC50 [1] [µM]	IC50 [2] [µM]	IC50 [3] [µM]	IC50 [4] [µM]	Compound
10 to 50	< 10	< 10	10 to 50	CCCS(=O)(=O)N1CC(CS(=O)(=O)NNC(=O)c2cc(-c3cn(C)cn3)cc(Cl)c2F)C1 [Compound I-178]
< 10	< 10	< 10	10 to 50	COc1ccc(CNC(=O)N[C@H]2C[C@@H](CS(=O)(=O)NNC(=O)c3cc(-c4cn(C)cn4)cc(Cl)c3F)C2)cc1 [Compound I-213]
< 10	< 10	< 10	10 to 50	CN(C(=O)C1CCC1)C1CCC(CS(=O)(=O)NNC(=O)c2cc(-c3cn(C)cn3)cc(Cl)c2F)CC1 (stereo not drawn) [Compound I-317]
< 10	< 10	< 10	< 10	Cn1cnc(-c2cc(Cl)c(F)c(C(=O)NNS(=O)(=O)CC3CC4CCC3C4)c2)c1 (stereo not drawn) [Compound I-308]
10 to 50	10 to 50	< 10	10 to 50	Cn1cnc(-c2cc(Cl)c(F)c(C(=O)NNS(=O)(=O)CC3CN(C(N)=O)C3)c2)c1 [Compound I-208]
< 10	< 10	< 10	10 to 50	Cn1cnc(-c2cc(Cl)c(F)c(C(=O)NNS(=O)(=O)CC3CCCC(NC(=O)c4ccccc4)C3)c2)c1 (stereo not drawn) [Compound I-230]
< 10	< 10	< 10	10 to 50	COc1ccc(CNC(=O)N2CC(CS(=O)(=O)NNC(=O)c3cc(-c4cn(C)cn4)cc(Cl)c3F)C2)cc1 [Compound I-203]
< 10	< 10	< 10	> 100	Cn1cnc(-c2cc(Cl)c(F)c(C(=O)NNS(=O)(=O)C[C@@H]3CCCO3)c2)c1 [Compound I-389]
10 to 50	10 to 50	< 10	10 to 50	COCCn1nc(-c2cc(Cl)c(F)c(C(=O)NNS(=O)(=O)CC3CCCCC3)c2)cc1C [Compound I-233]
10 to 50	< 10	10 to 50	10 to 50	O=C(NNS(=O)(=O)CC1CCCCC1)c1cc(-n2ccnn2)cc(Cl)c1F [Compound I-87]
< 10	< 10	< 10	10 to 50	CC(C)C(=O)N[C@H]1CC[C@H](CS(=O)(=O)NNC(=O)c2cc(-c3cn(C)cn3)cc(Cl)c2F)CC1 [Compound I-201]
< 10	< 10	< 10	10 to 50	CCNC(=O)NC1CCCC(CS(=O)(=O)NNC(=O)c2cc(-c3cn(C)cn3)cc(Cl)c2F)C1 (stereo not drawn) [Compound I-97]
< 10	10 to 50	< 10	10 to 50	Cn1cnc(-c2cc(Cl)c(F)c(C(=O)NNS(=O)(=O)CC3CCN(C(=O)NCCO)C3)c2)c1 (stereo not drawn) [Compound I-228]
10 to 50	10 to 50	< 10	10 to 50	CCNC(=O)N1CC(CS(=O)(=O)NNC(=O)c2cc(-c3cn(C)cn3)cc(Cl)c2F)C1 [Compound I-168]
< 10	10 to 50	< 10	10 to 50	COc1ccc(CN(C)C(=O)N2CC[C@H](CS(=O)(=O)NNC(=O)c3cc(-c4cn(C)cn4)cc(Cl)c3F)C2)cc1 [Compound I-162]
< 10	< 10	< 10	10 to 50	CNC(=O)N1CCCC(CS(=O)(=O)NNC(=O)c2cc(-c3cn(C)cn3)cc(Cl)c2F)C1 (stereo not drawn) [Compound I-191]
< 10	< 10	< 10	10 to 50	CN(C)C(=O)N1CCC(CS(=O)(=O)NNC(=O)c2cc(-c3cn(C)cn3)cc(Cl)c2F)C1 (stereo not drawn) [Compound I-66]
< 10	10 to 50	< 10	10 to 50	CCN(C)C(=O)NC1CCC(CS(=O)(=O)NNC(=O)c2cc(-c3cn(C)cn3)cc(Cl)c2F)C1 (stereo not drawn) [Compound I-291]
< 10	< 10	10 to 50	> 100	O=C(NNS(=O)(=O)CC1CCCCC1)c1cc(-n2cccn2)cc(Cl)c1F [Compound I-34]
> 100	> 100	> 100	> 100	Cc1cc(-c2cncn2C)cc(C(=O)NNS(=O)(=O)C2CCCCC2)c1F [Compound I-153]
< 10	< 10	< 10	10 to 50	CN1CCN([C@H]2CC[C@H](CS(=O)(=O)NNC(=O)c3cc(-c4cn(C)cn4)cc(Cl)c3F)CC2)C1=O [Compound I-319]
